Results from patent US20130012466A1 (priority 2006, published 2013).
pIC50: −log10 of the molar value. Where two headings read alike, the source gives them in different places.

Legend:
MCF7 = assay: Cytotoxicity assay (cell titer-glo and calcein AM), MCF7
Hep3B = assay: Cytotoxicity assay (cell titer-glo and calcein AM), Hep3B; conditions: Hep 3B, % error in parentheses
ADR-RES = assay: Cytotoxicity assay (cell titer-glo and calcein AM), ADR-RES; conditions: NCI/ADR RES, % error in parentheses
SK-OV-3 = assay: Cytotoxicity assay (cell titer-glo and calcein AM), SK-OV-3; conditions: SK-OV-3, % error in parentheses
Du145 = assay: Cytotoxicity assay (cell titer-glo and calcein AM), Du145; conditions: Du145, % error in parentheses
NCI-H460 = assay: Cytotoxicity assay (cell titer-glo and calcein AM), NCI-H460; conditions: NCI-H460, % error in parentheses
SF-268 = assay: Cytotoxicity assay (cell titer-glo and calcein AM), SF-268; conditions: SF-268, % error in parentheses
A549 = assay: Cytotoxicity assay (cell titer-glo and calcein AM), A549; conditions: A549, % error in parentheses
[1] = system: mouse mammary normal epithelial control cell line; assay: Cytotoxicity assay, normal control cell line
[2] = read-out: Cytotoxicity IC50, MCF7, CTG, CTG (cell titer-glo) readout, % error in parentheses
[3] = read-out: Cytotoxicity IC50, MCF7, calcein, calcein AM readout, % error in parentheses
[4] = read-out: Cytotoxicity IC50, Hep 3B, CTG, CTG (cell titer-glo) readout
[5] = read-out: Cytotoxicity IC50, Hep 3B, calcein, calcein AM readout
[6] = read-out: Cytotoxicity IC50, NCI/ADR RES, CTG, CTG (cell titer-glo) readout
[7] = read-out: Cytotoxicity IC50, NCI/ADR RES, calcein, calcein AM readout
[8] = read-out: Cytotoxicity IC50, SK-OV-3, CTG, CTG (cell titer-glo) readout
[9] = read-out: Cytotoxicity IC50, SK-OV-3, calcein, calcein AM readout
[10] = read-out: Cytotoxicity IC50, Du145, CTG, CTG (cell titer-glo) readout
[11] = read-out: Cytotoxicity IC50, Du145, calcein, calcein AM readout
[12] = read-out: Cytotoxicity IC50, NCI-H460, CTG, CTG (cell titer-glo) readout
[13] = read-out: Cytotoxicity IC50, NCI-H460, calcein, calcein AM readout
[14] = read-out: Cytotoxicity IC50, SF-268, CTG, CTG (cell titer-glo) readout
[15] = read-out: Cytotoxicity IC50, SF-268, calcein, calcein AM readout
[16] = read-out: Cytotoxicity IC50, A549, CTG, CTG (cell titer-glo) readout
[17] = read-out: Cytotoxicity IC50, A549, calcein, calcein AM readout
[18] = read-out: Cytotoxicity IC50, NmuMG, CTG, CTG (cell titer-glo) readout, % error in parentheses
[19] = read-out: Cytotoxicity IC50, NmuMG, calcein, calcein AM readout, % error in parentheses

SMILES | pIC50 (MCF7; [2]) | pIC50 (MCF7; [3]) | pIC50 (Hep3B; [4]) | pIC50 (Hep3B; [5]) | pIC50 (ADR-RES; [6]) | pIC50 (ADR-RES; [7]) | pIC50 (SK-OV-3; [8]) | pIC50 (SK-OV-3; [9]) | pIC50 (Du145; [10]) | pIC50 (Du145; [11]) | pIC50 (NCI-H460; [12]) | pIC50 (NCI-H460; [13]) | pIC50 (SF-268; [14]) | pIC50 (SF-268; [15]) | pIC50 (A549; [16]) | pIC50 (A549; [17]) | pIC50 [1, 18] | pIC50 [1, 19]
COc1cc2c(c(OC)c1OC)-c1ccc(OC)c(=O)cc1C(NC(=O)CN(OC)C1OCC(O)C(O)C1O)CC2 [Col22, L-riboside] | 5.37 | 5.54 | 5.61 | 5.40 | 5.65 | 5.45 | 5.32 | 5.32 | 5.62 | < 5.00 | 5.94 | 5.70 | 5.38 | 5.31 | 5.37 | 5.03 | < 5.00 | < 5.00
COc1cc2c(c(OC)c1OC)-c1ccc(OC)c(=O)cc1C(NC(=O)CN(OC)C1OC(C)C(O)C(O)C1O)CC2 [Col14, L-fucoside] | 5.31 | < 5.00 | < 5.00 | < 5.00 | < 5.00 | < 5.00 | < 5.00 | < 5.00 | < 5.00 | < 5.00 | 5.04 | < 5.00 | 5.28 | 5.00 | < 5.00 | < 5.00 | < 5.00 | < 5.00
COc1cc2c(c(OC)c1OC)-c1ccc(OC)c(=O)cc1C(NC(=O)CN(OC)C1OCC(O)C(O)C1O)CC2 [Col20, D-arabinoside] | 5.35 | 5.63 | < 5.00 | < 5.00 | 5.11 | 5.11 | < 5.00 | < 5.00 | 5.62 | 5.43 | 5.28 | 5.43 | 5.60 | 5.40 | 5.04 | < 5.00 | < 5.00 | < 5.00
COc1cc2c(c(OC)c1OC)-c1ccc(OC)c(=O)cc1[C@@H](NC(=O)CN(OC)[C@@H]1O[C@H](C)[C@H](O)[C@H](O)[C@H]1O)CC2 [Col9, D-fucoside] | < 5.00 | < 5.06 | < 5.00 | < 5.00 | < 5.00 | < 5.00 | < 5.00 | < 5.11 | < 5.00 | < 5.04 | < 5.00 | < 5.00 | < 5.00 | < 5.00 | < 5.00 | < 5.00 | < 5.00 | < 5.00
COc1cc2c(c(OC)c1OC)-c1ccc(OC)c(=O)cc1C(NC(=O)CN(OC)C1OCC(O)C(O)C1O)CC2 [Col7, L-lyxoside] | 5.58 | 5.40 | 5.31 | 5.32 | < 5.00 | < 5.00 | < 5.00 | 5.30 | < 5.00 | 5.33 | 5.15 | 5.24 | 5.30 | 5.31 | < 5.00 | 5.01 | < 5.00 | < 5.00
COc1cc2c(c(OC)c1OC)-c1ccc(OC)c(=O)cc1[C@@H](NC(=O)CN(OC)[C@@H]1O[C@H](CF)[C@@H](O)[C@H](O)[C@H]1O)CC2 [Col54, 6-deoxy-6-fluoro-D-glucoside] | < 5.00 | < 5.00 | < 5.00 | 5.33 | < 5.00 | < 5.00 | < 5.00 | < 5.00 | < 5.00 | < 5.00 | 5.42 | 5.31 | < 5.00 | < 5.00 | < 5.00 | < 5.00 | < 5.00 | < 5.00
COc1cc2c(c(OC)c1OC)-c1ccc(OC)c(=O)cc1[C@@H](NC(=O)CN(OC)[C@@H]1O[C@H](CCl)[C@H](O)[C@H](O)[C@H]1O)CC2 [Col41, 6-deoxy-6-chloro-D-galactoside] | 5.47 | 5.73 | 5.06 | 5.22 | 5.30 | 5.43 | 5.25 | 5.10 | 5.17 | 5.17 | 5.26 | 5.64 | 5.16 | 5.10 | 5.43 | 5.97 | < 5.00 | 5.03
COc1cc2c(c(OC)c1OC)-c1ccc(OC)c(=O)cc1C(NC(=O)CN(OC)C1OC(C)C(O)C(O)C1O)CC2 [Col37, L-rhamnoside] | 5.42 | 5.81 | 5.08 | 5.02 | 5.34 | 5.35 | 5.25 | < 5.00 | 5.24 | 5.36 | 5.43 | 5.17 | 5.32 | 5.33 | 5.15 | 5.14 | 5.11 | 5.11
COc1cccc2c1C(=O)c1c(O)c3c(c(O)c1C2=O)C[C@@](O)(C(=O)CO)C[C@@H]3O[C@H]1C[C@H](N)[C@H](O)[C@H](C)O1 [doxorubi] | – | – | 6.28 | 6.57 | 6.24 | – | 6.40 | 6.21 | 6.07 | 6.47 | – | – | 6.60 | 6.41 | – | – | – | –
COc1cc2c(c(OC)c1OC)-c1ccc(OC)c(=O)cc1[C@@H](NC(C)=O)CC2 [Col] | – | – | < 5.00 | 5.03 | < 5.00 | 5.20 | < 5.00 | – | < 5.00 | 5.33 | – | – | < 5.00 | < 5.00 | – | – | – | –
